In PMC9108603, “Microbial Metabolite Inspired β‐Peptide Polymers Displaying Potent and Selective Antifungal Activity” (Advanced Science, 2022):
Values after ≈ are worked out from the molar mass of the structure shown. Like-named read-outs stand apart in the source and are kept apart here.

Columns and labels:
[1] = tested on: C. albicans and C. neoformans; experiment: MIC/MFC, summary over all fungal strains; format: cell-based, Candida albicans, Cryptococcus neoformans
Procedure: (§1) In vitro antifungal assays. The MIC assays for C. albicans (K1, SC5314, Gu5, ATCC90028, R01, R02, R03 and R04 strains) and C. neoformans (H99, MYA737 and JEC21 strains) were conducted according to a previously described protocol. The cultured fungal cells were collected at 2.5 × 10^3 CFU/mL in RPMI 1640 medium to give the working suspension. Two- […]
plate to give 50 µL compound solution in each well. Then 50 µL of the cell suspension was added to each well. Wells containing cells in RPMI without any polymer or antifungal drug were used as drug-free controls, and wells containing RPMI medium only were used as cell-free controls. The plate was gently stirred for 10 seconds and then incubated at 30 °C. After C. albicans and C. neoformans cells were incubated for 24 h and 48 h, respectively, fungal cell growth was checked visually. The MIC values were identified as the lowest concentration […]
C. albicans . The MFC assay for Candida and Cryptococcus was conducted after the MIC test.
An aliquot of 3 µL premixed suspension from each well was plated on the yeast extract-peptone-dextrose (YPD) agar. The plates were incubated at 30 °C for 24 h and 48 h, respectively, for C. albicans cells and C. neoformans cells. Then the plate was inspected visually for colony formation. […]

C. albicans SC5314 = experiment: Biofilm-induced fungal keratitis model; format: in vivo, mouse (male BALB/c); settings: 10 μL every 5 min for 1 h, then every 30 min for 7 h, versus saline, n = 10
Procedure: Medicine (Accreditation number of the laboratory: SHDSYY-2021-1729). The experiment […]
method. […] AmpB was
(2.5% DMSO in final solution).
The organs (kidney, liver, and
14th day for histological analysis and blood biochemistry analysis.
30 min during the next 7 h.
C. albicans biofilm formation on contact lenses. The contact lenses (Biomedic ®, Cooper […]
Then the discs were transferred to a […]
and incubated at rt with shaking at 100 rpm. After 6 hours of incubation, the suspension was […]
addition of 150 μL fresh RPMI medium into each well. […]
All mice were killed and the eyeballs of each mouse were collected immediately 30 min after the administration of the last eye drop. Ten eyeballs from each group were homogenized for quantitative analysis of fungal counts with the number of CFUs expressed as mean log (CFU per eye), and the remaining four eyeballs were collected for histological analysis. […]
After incubation for 24 h at 30 °C, the colonies were counted and the number of CFUs was […]
expressed as mean log 10 (CFU per eye). […]
Statistical Analysis. […] Significance between two groups was determined by two-tailed t-test. […] All results were expressed as mean values ± s.d. n = 3 for each in vitro statistical analysis. n = 8 or 10 for each in vivo statistical analysis. […]

ICR mice = experiment: In vivo acute toxicity, single IV injection
Procedure: In vivo acute toxicity. All animal procedures were performed in accordance with the
Guidelines for Care and Use of Laboratory Animals of the Shanghai Tenth People’s Hospital
(License number: SYXK( 沪)-2021-0012), and experiments were approved by the Animal
Ethics Committee of the Shanghai Tenth People’s Hospital, Tongji University School of
was performed on 6-weeks old female ICR mice (n = 10) using the previously reported
prepared in DMSO and further diluted into sterile saline to a final concentration of 0.3 mg/mL
and 3 mg/kg, respectively, and mice injected with saline were used as controls. After a single
injection, all survival mice were weighed daily for 14 days. The organs (kidney, liver, and
spleen) (n = 2) and blood of mice treated by PDAP 20 or saline (n = 8) were collected on the

C. albicans = experiment: MIC assay (in vitro antifungal assay); format: cell-based, Candida albicans; settings: for MIC: Candida albicans
Procedure: as §1
Then 50 µL of the cell suspension was added to each well. Wells containing cells in RPMI without any polymer or antifungal drug were used as drug-free controls, and wells containing RPMI medium only were used as cell-free controls. The plate was gently stirred for 10 seconds and then incubated at 30 °C. After C. albicans and C. neoformans cells were incubated for 24 h and 48 h, respectively, fungal cell growth was checked visually. […]

S. aureus ATCC 6538 = experiment: Antibacterial MIC test; format: cell-based; settings: 1.0 × 10^5 CFU/mL in MH medium
Excerpt: (§2) aforementioned antifungal assay. Gram-positive bacteria ( S. aureus ATCC 6538, S.

A. Baumannii ATCC 747 = experiment: Antibacterial MIC test; format: cell-based; settings: 1.0 × 10^5 CFU/mL in MH medium
Excerpt: as §2

E. coli ATCC 25922 = experiment: Antibacterial MIC test; format: cell-based; settings: 1.0 × 10^5 CFU/mL in MH medium
Excerpt: as §2

[2] = tested on: K. pneumoniae ATCC 700603; experiment: Antibacterial MIC test; format: cell-based; settings: 1.0 × 10^5 CFU/mL in MH medium
Excerpt: as §2

[3] = tested on: S. epidermidis ATCC 49134; experiment: Antibacterial MIC test; format: cell-based; settings: 1.0 × 10^5 CFU/mL in MH medium
Excerpt: as §2

B. subtilis BR151 = experiment: Antibacterial MIC test; format: cell-based; settings: 1.0 × 10^5 CFU/mL in MH medium
Excerpt: as §2

Question: How did the “MIC against all strains of C. albicans and C. neoformans (range)” value [1] turn out when C[C@@H]1[C@H](O)[C@@H](C)/C=C/C=C/C=C/C=C/C=C/C=C/C=C/[C@H](O[C@@H]2O[C@H](C)[C@@H](O)[C@H](N)[C@@H]2O)C[C@@H]2O[C@](O)(C[C@@H](O)C[C@@H](O)[C@H](O)CC[C@@H](O)C[C@@H](O)CC(=O)O[C@H]1C)C[C@H](O)[C@H]2C(=O)O [AmpB, amphotericin B] was run?
Answer: 1.2 to 3.1 µg/mL

Question: What about the “Reduction of colonies, log CFU per eye” value (C. albicans SC5314; AmpB 1 mg mL^−1 eye drops) of the same compound?
Answer: 1.8 log CFU per eye

Question: What about the “Mice died within 48 h” value (ICR mice; single IV dose of 3 mg kg^−1, ICR mice, n = 10) of the same compound?
Answer: 90%

Question: And the MIC (C. albicans; 24 h, read-out: MIC C. albicans R01)?
Answer: 1.2 µg/mL (≈ 1.3 µM)

Question: What about the MIC (C. albicans; 24 h, read-out: MIC C. albicans R04) of the same compound?
Answer: 1.6 µg/mL (≈ 1.73 µM)

Question: What about the MIC (C. albicans; ATCC90028, 24 h, read-out: MIC C. albicans ATCC90028) of the same compound?
Answer: 1.6 µg/mL (≈ 1.73 µM)

Question: What about the MIC (C. albicans; SC5314, 24 h, read-out: MIC C. albicans SC5314) of the same compound?
Answer: 1.6 µg/mL (≈ 1.73 µM)

Question: Which “MIC against all strains of C. albicans and C. neoformans (range)” value [1] does the source give for poly(DL‐diaminopropionic acid) [PDAP20] here?
Answer: 0.1 to 0.8 µg/mL

Question: And the “MIC S. aureus” value (S. aureus ATCC 6538)?
Answer: > 200 µg/mL

Question: And the “MIC A. baumannii” value (A. Baumannii ATCC 747)?
Answer: > 200 µg/mL

Question: And the “MIC E. coli” value (E. coli ATCC 25922)?
Answer: 200 µg/mL

Question: What about the “MIC K. pneumoniae” value [2] of the same compound?
Answer: > 200 µg/mL

Question: And the “MIC S. epidermidis” value [3]?
Answer: 200 µg/mL

Question: And the “MIC B. subtilis” value (B. subtilis BR151)?
Answer: 50 µg/mL

Question: And the “Reduction of colonies, log CFU per eye” value (C. albicans SC5314; PDAP20 15 mg mL^−1 eye drops)?
Answer: 1.2 log CFU per eye

Question: What about the “Survival after IV injection” value (ICR mice; single IV dose of 100 mg kg^−1, ICR mice, n = 10, 14 days) of the same compound?
Answer: all mice survived

Question: What about the Body weight (ICR mice; single IV dose of 100 mg kg^−1, daily for 14 days, n = 10) of the same compound?
Answer: normal body weight compared to the saline group

Question: What about the “H&E histology of kidney, liver and spleen” value (ICR mice; single IV dose of 100 mg kg^−1, day 14, n = 2) of the same compound?
Answer: no obvious toxicity on major organs

Question: And the “Blood biochemistry (K+, Na+, ALT, AST, BUN, CREA)” value (ICR mice; single IV dose of 100 mg kg^−1, day 14, n = 8)?
Answer: did not cause significant changes in blood biochemical indicators

Question: And the “MIC at high fungal cell concentration (TEM conditions)” value (C. albicans; 1.0 × 10^8 CFU mL^−1, fungal species not stated at the place)?
Answer: 50 µg/mL

Question: What about the “MIC at high fungal cell concentration (other mechanism experiments)” value (C. albicans; 3.0 × 10^6 CFU mL^−1, fungal species not stated at the place) of the same compound?
Answer: 12.5 µg/mL

Question: What about the “Effect of increasing K+ on antifungal activity” value (C. albicans; K+ up to 20 × 10^−3 M, C. albicans K1) of the same compound?
Answer: didn't affect

Question: What about the “MIC C. albicans K1, standard MIC test in RPMI 1640” value (C. albicans; Na+ 103 mM, K+ 5.4 mM) of the same compound?
Answer: 0.8 µg/mL

Question: What about the “MIC C. albicans K1, K+ ↑” value (C. albicans; Na+ 103 mM, K+ 10 mM) of the same compound?
Answer: 0.8 µg/mL

Question: What about the “MIC C. albicans K1, K+ ↑” value (C. albicans; Na+ 103 mM, K+ 20 mM) of the same compound?
Answer: 0.8 µg/mL

Question: And the “MIC C. albicans K1, physiological salt concentration” value (C. albicans; Na+ 150 mM, K+ 5.4 mM)?
Answer: 1.6 μg/mL

Question: And the “MIC C. albicans K1, Na+ ↑” value (C. albicans; Na+ 200 mM, K+ 5.4 mM)?
Answer: 3.1 µg/mL

Question: What about the “MIC C. albicans K1, Na+ ↑” value (C. albicans; Na+ 300 mM, K+ 5.4 mM) of the same compound?
Answer: 6.3 µg/mL

Question: And the “MIC C. albicans K1, Na+ ↑, K+ ↑” value (C. albicans; Na+ 300 mM, K+ 20 mM)?
Answer: 6.3 µg/mL

Question: And the “MIC C. albicans K1 on increase of Na+ (range)” value (C. albicans; Na+ from 150 × 10^−3 to 300 × 10^−3 M)?
Answer: 1.6 to 6.3 µg/mL
